{"source": "ChEMBL document CHEMBL3137440", "about": "“DNDi T. cruzi fenarimol series dataset from which preclinical candidate EPL-BS0967 was identified (see also related datasets: CHEMBL3137386 and CHEMBL2448688)”", "key": {"[1]": {"assay": "DNDI: Solubility, 24 hour, 50 mM phosphate - pH 7.4, 37C", "format": "physicochemical", "conditions": "50 mM phosphate buffer, read-out: Equilibrium"}, "[2]": {"assay": "DNDI: Lipophilicity in water", "format": "physicochemical"}, "[3]": {"assay": "DNDI: Solubility, 24 hour, 50 mM Phosphate - pH 2, 37C", "format": "physicochemical", "conditions": "50 mM phosphate buffer, read-out: Equilibrium"}, "[4]": {"assay": "(§1) DNDI: Stability, 4 hour", "format": "ADME, cell-free, Canis lupus familiaris", "conditions": "dog, plasma"}, "[5]": {"assay": "as §1", "format": "ADME, tissue-based, Canis lupus familiaris", "conditions": "dog, blood"}, "[6]": {"assay": "DNDI: Lipophilicity (eLogD) at pH 5", "format": "physicochemical", "conditions": "buffer"}, "[7]": {"assay": "in vitro", "conditions": "human, microsomes"}, "[8]": {"system": "Trypanosoma cruzi", "assay": "(§2) DNDI: Chagas in Vitro", "format": "functional, organism-based, Tulahuen C4 (LacZ)"}, "[9]": {"assay": "(§3) DNDI: Metabolism", "format": "ADME, Microsome", "conditions": "rat, microsomes"}, "[10]": {"system": "Leishmania donovani", "assay": "DNDI: Inhibition of formation of Leishmania donovani", "format": "functional, MHOM/ET/67/L82", "parameters": "concentration or dose not given beside the values"}, "[11]": {"assay": "DNDI: Lipophilicity (eLogD) at pH 7.4", "format": "physicochemical", "conditions": "buffer"}, "[12]": {"system": "Trypanosoma cruzi", "assay": "as §2", "format": "functional, Tulahuen C4 (LacZ)"}, "[13]": {"assay": "DNDI: Solubility, 24 hour, FaSSIF, 37C", "format": "physicochemical", "conditions": "read-out: Equilibrium"}, "[14]": {"assay": "in vitro", "conditions": "mouse, microsomes"}, "[15]": {"assay": "as §1", "format": "ADME, tissue-based", "conditions": "blood"}, "[16]": {"assay": "DNDI: Solubility in phosphate buffer at pH 6.5 determined by nephelometry"}, "[17]": {"assay": "DNDI: Solubility, 24 hour, FeSSIF, 37C", "format": "physicochemical", "conditions": "read-out: Equilibrium"}, "[18]": {"assay": "DNDI: Protein binding in dog plasma", "format": "ADME, cell-free, Canis lupus familiaris", "conditions": "read-out: % bound"}, "[19]": {"assay": "DNDI: Solubility in 0.01M HCl at pH 2 determined by nephelometry"}, "[20]": {"assay": "as §3", "format": "ADME, Canis lupus familiaris, Microsome", "conditions": "dog, microsomes"}, "[21]": {"assay": "in vitro", "conditions": "mouse, microsomes", "remark": "listed apart in the source"}, "[22]": {"assay": "DNDI: Protein binding in human liver microsomes", "format": "ADME, Microsome", "conditions": "read-out: % bound (converted)"}, "[23]": {"assay": "DNDI: pKa", "format": "physicochemical", "conditions": "read-out: pKa(1)"}, "[24]": {"assay": "DNDI: Solubility, 24 hour, 20 mM Citrate - pH 3, 37C", "format": "physicochemical", "conditions": "20 mM citrate buffer, read-out: Equilibrium"}, "[25]": {"assay": "DNDI: Cytotoxicity against L-6 rat myoblasts from skeletal musclE", "conditions": "L6 rat skeletal muscle myoblasts, IC50"}, "[26]": {"assay": "DNDI: Protein binding 10% serum RPMI", "format": "ADME", "conditions": "RPMI medium with 10% serum; read-out: % bound (converted)"}, "[27]": {"assay": "DNDI: Protein binding in human plasma", "format": "ADME, cell-free", "conditions": "read-out: % bound"}, "[28]": {"assay": "DNDI: Lipophilicity (gLogD) at pH 7.4", "conditions": "buffer, pH 7.4"}, "[29]": {"assay": "DNDI: Lipophilicity (gLogD) at pH 3", "conditions": "buffer, pH 3"}, "[30]": {"biological_target": "Cytochrome P450 2D6 (Homo sapiens, UniProt P10635)", "sequence (P10635 whole entry)": "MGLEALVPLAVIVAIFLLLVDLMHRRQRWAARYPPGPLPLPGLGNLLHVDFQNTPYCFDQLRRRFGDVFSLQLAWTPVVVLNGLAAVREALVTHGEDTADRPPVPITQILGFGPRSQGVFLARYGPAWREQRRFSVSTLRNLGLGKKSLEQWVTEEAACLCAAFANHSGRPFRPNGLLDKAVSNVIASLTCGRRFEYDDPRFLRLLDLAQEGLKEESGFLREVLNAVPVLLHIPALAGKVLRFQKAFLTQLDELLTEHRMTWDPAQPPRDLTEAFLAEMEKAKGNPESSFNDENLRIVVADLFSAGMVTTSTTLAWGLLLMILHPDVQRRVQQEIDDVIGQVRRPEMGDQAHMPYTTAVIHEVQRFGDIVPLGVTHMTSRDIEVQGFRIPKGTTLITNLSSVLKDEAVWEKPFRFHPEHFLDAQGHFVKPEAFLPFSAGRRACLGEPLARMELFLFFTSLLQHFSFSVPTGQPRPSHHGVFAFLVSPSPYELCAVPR", "assay": "(§4) DNDI: CYP Inhibition", "format": "ADME"}, "[31]": {"biological_target": "T1, Cytochrome P450 1A2 (Homo sapiens, UniProt P05177)", "T1 sequence (P05177 whole entry)": "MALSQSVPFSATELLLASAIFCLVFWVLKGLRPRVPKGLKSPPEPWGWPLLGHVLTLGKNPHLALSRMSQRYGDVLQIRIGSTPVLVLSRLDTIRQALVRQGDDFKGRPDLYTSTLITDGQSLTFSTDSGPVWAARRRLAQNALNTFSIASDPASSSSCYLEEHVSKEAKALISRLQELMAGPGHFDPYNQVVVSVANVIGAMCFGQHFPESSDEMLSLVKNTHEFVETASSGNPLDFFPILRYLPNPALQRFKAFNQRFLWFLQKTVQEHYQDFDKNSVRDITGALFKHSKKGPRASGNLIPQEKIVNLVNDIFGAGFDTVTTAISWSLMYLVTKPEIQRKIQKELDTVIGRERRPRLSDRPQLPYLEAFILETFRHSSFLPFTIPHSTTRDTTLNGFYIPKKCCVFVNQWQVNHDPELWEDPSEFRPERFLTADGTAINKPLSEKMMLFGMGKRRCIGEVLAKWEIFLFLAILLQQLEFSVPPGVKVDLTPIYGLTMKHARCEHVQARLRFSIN", "assay": "as §4", "format": "ADME"}, "[32]": {"assay": "DNDI: Protein binding in rat plasma", "format": "ADME, cell-free", "conditions": "read-out: % bound"}, "[33]": {"assay": "DNDI: Solubility, 24 hour, SGF, 37C", "format": "physicochemical", "conditions": "read-out: Equilibrium"}, "[34]": {"assay": "as §1", "format": "ADME, cell-free", "conditions": "plasma"}, "[35]": {"assay": "in vitro", "conditions": "human, microsomes", "remark": "listed apart in the source"}, "[36]": {"assay": "DNDI: Protein binding in mouse plasma", "format": "ADME, cell-free", "conditions": "read-out: % bound"}}, "note": "Values joined by “and” are separate entries in the source; they are usually repeats but may differ in a detail not shown here. Equal entries are not always repeated.", "data": [{"smiles": "FC(F)(F)c1ccc(N(c2cccnc2)C2CCN(c3ccc(C(F)(F)F)cn3)CC2)cc1", "values": [{"measurement": "solubility thermodynamic at 24 h", "setting": "[1]", "result": "< 0.25", "unit": "µg/mL"}, {"measurement": "logD", "setting": "[2]", "result": "> 5.95"}, {"measurement": "solubility thermodynamic at 24 h", "setting": "[3]", "result": 1430, "unit": "µg/mL"}, {"measurement": "remaining at 4 h", "setting": "[4]", "result": 102, "unit": "%"}, {"measurement": "remaining at 4 h", "setting": "[5]", "result": 108, "unit": "%"}, {"measurement": "chromatographic logD", "setting": "[6]", "result": "> 6.07"}, {"measurement": "microsomal CLint", "setting": "[7]", "result": 39, "unit": "µL/min/mg"}, {"measurement": "IC50", "setting": "[8]", "result": 17, "unit": "nM"}, {"measurement": "IC50", "setting": "[8]; Trypanosoma cruzi, Tulahuen C4 (LacZ)", "result": 14, "unit": "nM"}, {"measurement": "half-life", "setting": "[9]", "result": 1.92, "unit": "h"}, {"measurement": "microsomal CLint", "setting": "[9]", "result": 15, "unit": "µL/min/mg"}, {"measurement": "% inhibition", "setting": "[10]", "result": 37.9, "unit": "%"}, {"measurement": "chromatographic logD", "setting": "[11]", "result": "> 6.05"}, {"measurement": "IC90", "setting": "[12]", "result": "31 nM and 25 nM"}, {"measurement": "solubility thermodynamic at 24 h", "setting": "[13]", "result": "< 0.25", "unit": "µg/mL"}, {"measurement": "microsomal CLint", "setting": "[14]", "result": 25, "unit": "µL/min/mg"}, {"measurement": "remaining at 4 h", "setting": "[15]; human", "result": 101, "unit": "%"}, {"measurement": "remaining at 4 h", "setting": "[15]; rat", "result": 115, "unit": "%"}, {"measurement": "solubility kinetic", "setting": "[16]", "result": "< 1.6", "unit": "µg/mL"}, {"measurement": "solubility thermodynamic at 24 h", "setting": "[17]", "result": 12.7, "unit": "µg/mL"}, {"measurement": "fraction unbound", "setting": "[18]", "result": 0.01}, {"measurement": "solubility kinetic", "setting": "[19]", "result": "> 100", "unit": "µg/mL"}, {"measurement": "half-life", "setting": "[20]", "result": 1.22, "unit": "h"}, {"measurement": "microsomal CLint", "setting": "[20]", "result": 24, "unit": "µL/min/mg"}, {"measurement": "half-life", "setting": "[21]", "result": 1.17, "unit": "h"}, {"measurement": "fraction unbound", "setting": "[22]", "result": 0.002}, {"measurement": "pKa", "setting": "[23]", "result": 2.41}, {"measurement": "solubility thermodynamic at 24 h", "setting": "[24]", "result": 53.1, "unit": "µg/mL"}, {"measurement": "IC50", "setting": "[25]", "result": "> 100000", "unit": "nM"}, {"measurement": "fraction unbound", "setting": "[26]", "result": 0.004}, {"measurement": "fraction unbound", "setting": "[27]", "result": "< 0.001"}, {"measurement": "chromatographic logD", "setting": "[28]", "result": "> 5.3"}, {"measurement": "chromatographic logD", "setting": "[29]", "result": 5}, {"measurement": "IC50", "setting": "[30]", "result": "> 20000", "unit": "nM"}, {"measurement": "IC50", "setting": "[31]", "result": "> 20000", "unit": "nM"}, {"measurement": "fraction unbound", "setting": "[32]", "result": "< 0.001"}, {"measurement": "solubility thermodynamic at 24 h", "setting": "[33]", "result": 9680, "unit": "µg/mL"}, {"measurement": "remaining at 4 h", "setting": "[34]; human", "result": 97, "unit": "%"}, {"measurement": "remaining at 4 h", "setting": "[34]; rat", "result": 96, "unit": "%"}, {"measurement": "half-life", "setting": "[35]", "result": 0.75, "unit": "h"}, {"measurement": "fraction unbound", "setting": "[36]", "result": "< 0.001"}]}]}
